# According to US20060205949A1, “Crystalline forms of a biphenyl compound” (THERAVANCE, INC., priority 2005, published 2006):
# How the values were obtained:
# [1] = pH 4.5
# Protocol: A solution was prepared with 0.1 mg/mL freebase equivalents (using a crystalline mononapadisylate salt prepared as described in Example 2) in 10 mM citrate buffered normal saline, pH 4.5. […] Less than 0.5% degradation was observed after storage for one month at 40° C./75% RH.
# [2] = Pre-Micronization
# [3] = Differential scanning calorimetry (thermal stability); type: physicochemical; conditions: DSC trace, 10° C./min
# Protocol: Differential scanning calorimetry (DSC) was performed using a TA Instruments Model Q-10 module with a Thermal Analyst controller. Data were collected and analyzed using TA Instruments Thermal Solutions software. A sample of about 1 mg was accurately weighed into an aluminum pan with lid. The sample was evaluated using a linear heating ramp of 10° C./min from ambient temperature to approximately 250° C. The DSC cell was purged with dry nitrogen during use.
# [4] = Dynamic moisture sorption (DMS) assessment; type: physicochemical
# Protocol: A dynamic moisture sorption (DMS) assessment (also known as a moisture sorption-desorption profile) was performed for samples of the crystalline naphthalene-1,5-disulfonic acid salts using a VTI atmospheric microbalance, SGA-100 system (VTI Corp., Hialeah, Fla. 33016). A sample size of approximately 10 mg was used and the humidity was set at the ambient value at the start of the analysis. A typical DMS analysis consisted of three scans: ambient to 2% relative humidity (RH), 2% RH to 90% RH, 90% RH to 5% RH at a scan rate of 5% RH/step. The mass was measured every two minutes and the RH was changed to the next value (+/−5% RH) when the mass of the sample was stable to within 0.01% for 5 consecutive points.
# [5] = 6 weeks; −20° C. closed, 40° C./75% RH open and closed, 50° C. closed; all conditions
# Protocol: Samples of the crystalline mononapadisylate salt of Example 2, about 200 mg each, were stored in multiple 3 mL borosilicate vials at −20° C. (closed container), 40° C./75% RH (open and closed container), and at 50° C. (closed container). At specific intervals, the entire contents of a representative vial was analyzed by the following HPLC method:
# Column: Agilent Zorbox SB-C18, 4.6×250 mm, 5 μm; Mobile Phase A: 98% water, 2% ACN, 0.1% TFA; Mobile Phase B: 10% water, 90% ACN; 0.1% TFA; Flow rate: 1 mL/min; Injection Volume: 20 μL; Detector: 220 nm; Gradient-Time in minutes (% Mobile Phase B): 0.0 (10); 4.00 (20); 26.00 (28); 34.40 (100); 38.40 (100); 38.50 (10); and 45.00 (10). […] These stock solutions were diluted to 1 mg/mL in 10% ACN for injection onto the HPLC.
smiles,measurement,setting,value
O=C(CCN1CCC(OC(=O)Nc2ccccc2-c2ccccc2)CC1)NCCCCCNCc1ccc(O)cc1.O=S(=O)(O)c1cccc2c(S(=O)(=O)O)cccc12 [Crystalline Mononapadisylate Salt of Biphenyl-2-ylcarbamic Acid 1-2-[5-(4-Hydroxybenzylamino)pentylcarbamoyl]ethyl]piperidin-4-yl Ester],degradation in solution,"[1]; 0.1 mg/mL freebase equivalents in 10 mM citrate buffered normal saline, one month at 40° C./75% RH",Less than 0.5%
same,solubility,[1]; 10 mM citrate buffered normal saline,approximately 0.4 mg/mL
same,"particle size D (v, 0.1)",[2],2.5 μm
same,"particle size D (v, 0.5)",[2],9.4 μm
same,"particle size D (v, 0.9)",[2],22.1 μm
same,thermal decomposition temperature (no thermal decomposition below),[3],≥ 225 °C
same,sorption/desorption profile and hygroscopicity,[4]; DMS trace,reversible sorption/desorption profile with low hygroscopicity
same,weight gain,[4]; exposed to 2-90% RH,4.5%
same,weight gain,[4]; humidity range of 40-70% RH,0.7%
same,weight gain,[4]; humidity range of 40-75% RH,0.8%
same,weight gain,"[4]; humidity range of 40-75% RH, listed as crystalline mononapadisylate salt of the compound of formula I",less than 0.8%
same,change in chemical purity (HPLC),[5],no detectable change
same,change in the appearance of the material,[5],no observable change
